Experimental data as given in patent US20160169914A1, “KINETICS BIOMARKERS FOR NEURODEGENERATION” (KineMed, Inc., priority 2014, published 2016).

Key:
[1] = cited from earlier work
ALS = conditions: approved by the FDA in 1995; cited from earlier work
[2] = Tolerability of high body water enrichments of 2H2O; assay type: in vivo, human; conditions: 1-10% of total body water labeled, maintained for weeks or months; humans (>100 persons) and experimental animals
Description: Relatively high body water enrichments of ^2H2O (e.g., 1-10% of the total body water is labeled) may be achieved relatively inexpensively using the techniques of the invention. […] This finding in a large number of human subjects (>100 persons) is contrary to previous concerns about vestibular toxicities at high doses of ^2H2O. One of the Applicants has discovered that as long as rapid changes in body water enrichment are prevented (e.g., by initial administration in small, divided doses), high body water enrichments of ^2H2O can be maintained with no toxicities. For example, the low expense of commercially available ^2H2O allows long-term maintenance of enrichments in the 1-5% range at relatively low expense (e.g., calculations reveal a lower cost for 2 months labeling at 2% ^2H2O enrichment, and thus 7-8% enrichment in the alanine precursor pool, than for 12 hours labeling of ^2H-leucine at 10% free leucine enrichment, and thus 7-8% enrichment in leucine precursor pool for that period).

[3] = system: BDNF (brain-derived neurotrophic factor) transport rate; conditions: PD patients
Description: Statistical significance was assessed by 1-way ANOVA with Tukey post-hoc testing. A P value less than 0.05 was considered statistically significant (* P<0.05). […] Solid lines indicate regression; dashed lines indicate 95% confidence intervals. The statistical test that generated both the r^2 and P values was a linear regression (mean±SD were generated by technical replicates of repeated sample preparations and analyses).
The study group consisted of symptomatic PD patients, all on standard anti-PD medications, and 6 non-PD volunteers. […] Unified PD Rating Scale, PART III, and Hoehn and Yahr scores were obtained for each subject. […] Compliance to the experimental protocol was monitored by the clinical staff through collection of blood plasma samples for body water enrichment. […]
Purified cargo proteins were hydrolyzed by treatment with 6N HCl for 16 hours at 110° C. Protein derived amino acids were derivatized to pentafluorobenzyl derivatives, and ^2H incorporation in alanine released from total vesicular proteins was measured by GC/MS, as described elsewhere (Busch R, et al., Biochim Biophys Acta., 1760(5):730-44 (2006)). ^2H enrichment was calculated as the percent increase over the natural abundance of alanine derivative present as the (M+1) mass isotopomer (EM1) (Busch R, et al., Biochim Biophys Acta., 1760(5):730-44 (2006)). […]

Question: For `COc1ccc2c(c1OC)C(=O)O[C@@H]2[C@H]1c2c(cc3c(c2OC)OCO3)CCN1C` [Noscapine], which “half-life in CNS tissue” value ([1]; CNS tissue (brain and spinal cord) and PNS) is on record?
Answer: The value was “long half-life”.

Question: What about the “blood brain barrier penetration” value ([1]; in vivo) of the same compound?
Answer: The value was “penetrates the blood brain barrier”.

Question: Which disease progression (ALS) does the source give for `Nc1nc2ccc(OC(F)(F)F)cc2s1` [Riluzole] here?
Answer: The disease progression was “only delays disease progression modestly”.

Question: With `[2H]O[2H]` [^2H2O] as the compound, how does the “toxicity at high body water enrichment” value [2] read?
Answer: Its value is “without any evidence of toxicity”.

Question: With `C#CCN[C@@H]1CCc2ccccc21` [rasagiline] as the compound, how does the “deficits in transport rates of BDNF in CSF, compared to patients not treated with Azilect” value ([3]; rasagiline 1 mg/day, 1-way ANOVA with Tukey post-hoc, * P<0.05, FIG. 7 panel A) read?
Answer: Its value is “reduced deficits in transport rates of BDNF”.

Question: And the “correlation between reduced delays in rates of BDNF transport and duration of treatment” value ([3]; duration of treatment in years prior to LP, linear regression, FIG. 7 panel B)?
Answer: The value was “strong correlation”.
